Assay results as given in patent publication US20180371272A1, “AQUEOUS INK, INK CARTRIDGE AND IMAGE RECORDING METHOD” (CANON KABUSHIKI KAISHA, priority 2017, published 2018).
Read-outs that look alike come from different tables or passages of the source.

Columns and labels:
Format in all cases: physicochemical
[1] = Vapor pressure of solvent A at 20° C.
Description: (§1) The present invention will be described in detail hereinafter by mentioning preferable embodiments. When a compound is a salt in the present invention, the salt exists while dissociating into ions in an ink, but this is expressed as “containing a salt” for convenience. An aqueous inkjet ink may be described as just an “ink.” The physical property values are values at 20° C. unless otherwise specified.
(§2) The vapor pressure of the solvent A at 20° C. is 0.5 mmHg or less, and the surface tension at 20° C. is 30 mN/m or more. When the vapor pressure is more than 0.5 mmHg, oil films formed on ejection ports evaporate, and the effect of suppressing water evaporation becomes weak. When the surface tension is less than 30 mN/m, the intermolecular force is weak. Therefore, oil films cannot be formed. The vapor pressure of the solvent A at 20° C. can be 0.2 mmHg or less. The surface tension of the solvent A at 20° C. can be 36 mN/m or more. Specific examples of the solvent A are illustrated in Table 1.

[2] = Surface tension of solvent A at 20° C.
Description: as §1, §2

[3] = Water solubility of solvent A at 20° C.; settings: for Water solubility (% by mass): 20° C.
Description: When a compound is a salt in the present invention, the salt exists while dissociating into ions in an ink, but this is expressed as “containing a salt” for convenience. An aqueous inkjet ink may be described as just an “ink.” The physical property values are values at 20° C. unless otherwise specified.
This solvent A is a so-called poorly water-soluble compound (poorly water-soluble solvent), which is poorly dissolved in water. […] When water in the ink evaporates and the concentration increases, the solvent A cannot be completely dissolved in the ink to separate from the ink. Because the tips of non-printing nozzles are exposed to the atmosphere, water in the ink volatilizes particularly easily.

[4] = Log partition coefficient of solvent A

Row | Vapor pressure (mmHg) [1] [mmHg] | Surface tension (mN/m) [2] [mN/m] | Water solubility (% by mass) [3] [% by mass] | Log partition coefficient [4] | SMILES | Vapor pressure (mmHg) ([1]; 20° C.) | water solubility of the solvent A in the prepared ink ([3]; solvent A of ink 1) [%]
1 | 0 | 37.7 | 1.1 | 1.51 | CC(O)COc1ccccc1 (stereo not shown) [1-Phenoxy-2-propanol] |  | 
2 | 0.1 | 39.7 | 2.2 |  | OCCc1ccccc1 [Phenethyl alcohol] |  | 
3 | 0 | 38.3 | 0.1 | 2.4 | OCCCCc1ccccc1 [4-Phenyl-1-butanol] |  | 
4 | 0 | 38.9 | 0.568 | 1.88 | OCCCc1ccccc1 [3-Phenyl-1-propanol] |  | 
5 | 0.1 | 39 | 4.29 | 1.03 | OCc1ccccc1 [Benzyl alcohol] |  | 

Row | SMILES | Vapor pressure (mmHg) [1] [mmHg] | Surface tension (mN/m) [2] [mN/m] | Water solubility (% by mass) [3] [% by mass] | Log partition coefficient [4] | Vapor pressure (mmHg) ([1]; 20° C.) | water solubility of the solvent A in the prepared ink ([3]; solvent A of ink 1) [%]
6 | CC(O)Cc1ccccc1 (stereo not shown) [1-Phenyl-2-propanol] |  | 37.3 | 0.58 | 1.71 | 0.1 | 
7 | OCCOc1ccccc1 [2-Phenoxyethanol] | 0 | 40 | 2.67 | 1.16 |  | 2.7
